Type in all cases: in vivo
The subject of series [1] is mice. Put plainly: Oxotremorine-induced tremor in mice.
Series [2] deals with synaptosomal high-affinity choline uptake (HACU). In words: Barbiturate-induced cholinergic deficit in rats. The source says:
This sodium-dependent uptake normally constitutes the limiting factor in acetyl choline synthesis.

In series [3] the test system is mice. Put plainly: Interaction with clonidine (cerebral survival time on sudden cardiac arrest caused by MgCl2). The settings on record: for antagonism of the effect of clonidine: simultaneously with clonidine.

As for `Cn1cnc(C[C@H](NC(=O)[C@@H]2CCC(=O)N2)C(=O)N2[C@H]3CC[C@H](C3)[C@H]2C(N)=O)c1` [Example 1, (S)PyroGlu-(S)(N^.tau. -Me)His-(1S,3S,4R)ABH-NH2], the “induction of tremor by the compound itself” value in series [1] (10 mg/kg ip) is “without itself inducing tremor”.

On to `NC(=O)[C@@H]1CCCN1C(=O)[C@H](Cc1c[nH]cn1)NC(=O)[C@@H]1CCC(=O)N1` [TRH, pyroglutamylhistidylprolinamide], for which, in series [2] (10 mg/kg ip simultaneously with pentobarbital), the inhibition of narcosis result is reported as “does not inhibit the narcosis”. Further, the “counteraction/inhibition of the fall in HACU induced by the barbiturate” value in series [2] (10 mg/kg ip simultaneously with pentobarbital 60 mg/kg ip, HACU measured after 20 minutes of narcosis) is recorded as -35%. In addition, the “boosting of the tremor” value is reported as “no longer apparent” in series [1] (3 mg/kg ip); “+90%” in series [1] (10 mg/kg ip 30 minutes before oxotremorine 0.5 mg/kg ip, measured at peak of action); “no boosting effect” in series [1] (administered orally (Example 1: 10 mg/kg)). Besides, the “boosting effect in the presence of scopolamine” value in series [1] (scopolamine 0.01 mg/kg) is “persists”. The “antagonism of the effect of clonidine” value in series [3] (1 mg/kg ip) is -20%; in series [3] (3 mg/kg ip) it was -80%. Further, the “effect on its own in the test” value in series [3] (without clonidine) was “without having an effect on its own”.

In the case of `Clc1cccc(Cl)c1N=C1NCCN1` [clonidine], the “increase in the cerebral survival time” value in series [3] (sudden cardiac arrest caused by intravenous MgCl2) is listed as “+60%”.

With `CCCC(C)C1(CC)C(=O)NC(=O)NC1=O` (stereo not drawn) [pentobarbital], in series [2] (60 mg/kg ip, after 20 minutes of narcosis), the “fall in synaptosomal high-affinity choline uptake (HACU)” value is given as -48%.

The values above are taken from patent US5098888A, “New heterocyclic tripeptide compounds” (Adir et Compagnie, priority 1989, dated 1992).
